The values that follow are results of earlier work, collected in patent US20260130964A1, “PHARMACEUTICAL COMPOSITION COMPRISING HIGH PAY LOAD GINGER EXTRACT GRANULES AND PROCESS FOR PREPARATION THEREOF” (INDIA GLYCOLS LIMITED, priority 2022, published 2026).

SMILES strings stand for the structures.

The conditions of this series: in vivo, po.

Regarding `CCCCC[C@H](O)CC(=O)CCc1ccc(O)c(OC)c1` [Example 6-gingerol, 6-gingerol], the biological half-life is below 2 hrs.
